Measured values: patent US5911993A, “Homeopathic antidiabetic treatment” (priority 1997, dated 1999)

Key:
[1] = test system: diabetes models; test: blood sugar in mice diabetes models made by injecting Tetraoxymidine; format: in vivo, Kumming species mice; conditions: for Blood sugar value, After Use / Reducer rate (-.increment.X%) / Blood sugar value, Before Use: 11 female mice, 0.2 ml/mouse/day; for Blood sugar value, After Use: 6 days after filling the gastric, 0.5 mg/ml powder; for Reducer rate (-.increment.X%) / sequence of reducing blood sugar: 6 days; for Reducer rate (-.increment.X%): 0.5 mg/ml; for Blood sugar value, Before Use: baseline before 0.5 mg/ml powder
Protocol: Then, an animal experiment was conducted using a powder and concentrated powder from the methods of steps of FIGS. 2 through 5. The experimental method is as follows: Separate 88 Kumming species mice randomly to reference group, DSP group, DAS group, DAS 1, DAS 2, and DAS 3 groups, Damicron group, and Youjiangtang group, 11 female mice in each group. Use the mice to make diabetes models by injecting Tetraoxymidine, and compare experiment group with known DSP, Damicron, Youjiangtang (as the standard sample). The dose for every group: 0.5 mg/ml powder, every day 0.2 ml for every mouse, and every day 0.2 ml sodium chloride solution for the reference group only. Take blood to measure blood sugar value 6 days after filling the gastric.

[2] = test system: non-insulin dependent type diabetes; test: clinical experiments on humans, non-insulin dependent type diabetes; conditions: human, in vivo
Protocol: (§1) Clinical experiments were also conducted on humans from various provinces of China. Five examples of these clinical experiments are as follows (in each experiment each tablet had 20 mg of non-concentrated powder of Echevaria glauca, Sinocrassula berger, Crassulaceae according to the invention): […]

[3] = test system: polychromatic erythrocytes; test: Mouse marrow micronucleus experiment; format: in vivo, Kumming species mouse
Protocol: 2 Mouse marrow micronucleus experiment:
Adopting first class qualified Kumming species mouse (provided by animal house of CMA) whose weight are 24~30 g. Making 3 DAS dose groups as 10, 600, 1200 mg/kg plus a positive (cyclophosphamide 30 mg/kg, inject to stomach 2 times) and a negative reference group, 10 mice for each group, half male and half female. Filling the gastric of each mouse two days continuously, and executing the mouse 6 hours after last filling, taking sternum marrow to make thin section as routine, coloring to red. Counting 1000 polychromatic erythrocytes for each mouse, observing polychromatic erythrocytes which contains micronucleus and calculating the rate of micronucleus cell.

[4] = test system: sperm; test: Mouse sperm terata experiment; format: in vivo, Kumming species mouse
Protocol: 3 Mouse sperm terata experiment:
Adopting first class qualified Kumming species mouse (provided by animal house of CMA) whose weight are 27~36 g. Making 3 DAS dose groups as 10, 600, 1200 mg/kg plus a positive (cyclophosphamide 30 mg/kg, inject to stomach 5 days) and a negative reference group. Filling the gastric of each mouse for each of 5 days continuously, and executing the mouse at 35th day after first filling, taking epididymis of both sides, coloring, observing 1000 sperms for each mouse and calculating the ratio of sperm mutation.

[5] = test system: insulin dependent type diabetes; test: clinical experiment on human, insulin dependent type diabetes; format: in vivo, humans; conditions: Example 2, 20 units insulin injected
Protocol: as §1

| Molecule | Blood sugar value, After Use [1] | Reducer rate (-.increment.X%) [1] | Blood sugar value, Before Use [1] | sequence of reducing blood sugar [1] | other results |
| --- | --- | --- | --- | --- | --- |
| Cc1ccc(S(=O)(=O)NC(=O)NN2CC3CCCC3C2)cc1 (stereo not drawn) [DMC] | 110.50 mg % | 42.55% | 292.35 mg % | DAS2 >DAS3 >DAS1>DSP>YJT>DMC |  |
| COc1ccc(Cl)cc1C(=O)NCCc1ccc(S(=O)(=O)NC(=O)NC2CCCCC2)cc1 [YJT] | 162.28 mg % | 45.28% | 296.38 mg % | DAS2 >DAS3 >DAS1>DSP>YJT>DMC | side effect (a sign of low blood sugar) [2]: became dizzy |
| O=P1(N(CCCl)CCCl)NCCCO1 (stereo not drawn) [cyclophosphamide] |  |  |  |  | Ratio of cell micronucleus ([3]; Positive R.G., 30 mg/kg, 2 times): 45.3%; P vs negative group, micronucleus ([3]; positive reference group): < 0.01; Variant rate ([4]; Positive R.G., 30 mg/kg, 5 days): 61.9%; Variant sperm number ([4]; Positive R.G., 30 mg/kg, 5 days, 10000 sperm observed): 619; P vs negative group, sperm terata ([4]; positive reference group): < 0.01 |
| insulin |  |  |  |  | high or low blood sugar before DAS [5]: became high or low blood sugar occasionally |
